Assays:
Bos taurus = organism: Bos taurus; experiment: Displacement of ethidium bromide from calf thymus DNA measured after 30 mins by fluorescence quenching assay
[1] = Cell cycle arrest in human HCT15 cells assessed as accumulation at G1 phase at 1 uM after 20 hrs by DAPI staining-based cell analyzer (reference value: 40%); format: functional; details: HCT-15
[2] = molecular target: DNA topoisomerase 2-alpha (Homo sapiens) (UniProt P11388); experiment: Poison activity at topoisomerase-2 alpha in human HCT15 cells assessed as DNA damage by measuring DNA tail length at 10 uM measured after 24 hrs by alkaline comet assay; format: cell-based; details: HCT-15
[3] = molecular target: DNA topoisomerase 2-alpha (Homo sapiens) (UniProt P11388); experiment: Poison activity at topoisomerase-2 alpha in human T47D cells assessed as DNA damage by measuring DNA tail length at 5 uM measured after 24 hrs by alkaline comet assay; format: cell-based
[4] = Cell cycle arrest in human HCT15 cells assessed as accumulation at G2/M phase at 1 uM after 20 hrs by DAPI staining-based cell analyzer (reference value: 13%); format: functional; details: HCT-15
[5] = molecular target: DNA topoisomerase 2-alpha (Homo sapiens) (UniProt P11388); experiment: Poison activity at topoisomerase-2 alpha in human HCT15 cells assessed as DNA damage by measuring DNA tail length at 5 uM measured after 24 hrs by alkaline comet assay; format: cell-based; details: HCT-15
[6] = Cell cycle arrest in human T47D cells assessed as accumulation at S phase at 0.5 uM after 24 hrs by DAPI staining-based cell analyzer (reference value: 26%); format: functional
[7] = Antiproliferative activity against human DU145 cells measured after 72 hrs by CCK8 assay; format: functional, cell-based; details: DU-145, 72 h
[8] = Antiproliferative activity against human HCT15 cells measured after 72 hrs by CCK8 assay; format: functional, cell-based; details: HCT-15, 72 h
[9] = Cell cycle arrest in human T47D cells assessed as accumulation at S phase at 1 uM after 24 hrs by DAPI staining-based cell analyzer (reference value: 26%); format: functional
[10] = Antiproliferative activity against human MCF7 cells measured after 72 hrs by CCK8 assay; format: functional, cell-based; details: MCF7, 72 h
[11] = Cell cycle arrest in human HCT15 cells assessed as accumulation at G1 phase at 0.5 uM after 20 hrs by DAPI staining-based cell analyzer (reference value: 40%); format: functional; details: HCT-15
[12] = Cell cycle arrest in human T47D cells assessed as accumulation at G1 phase at 1 uM after 24 hrs by DAPI staining-based cell analyzer (reference value: 51%); format: functional
[13] = Cell cycle arrest in human HCT15 cells assessed as accumulation at G2/M phase after 20 hrs by DAPI staining-based cell analyzer; format: functional; details: HCT-15
[14] = Cell cycle arrest in human HCT15 cells assessed as accumulation at S phase at 0.5 uM after 20 hrs by DAPI staining-based cell analyzer (reference value: 34%); format: functional; details: HCT-15
[15] = Cell cycle arrest in human HCT15 cells assessed as accumulation at G2/M phase at 0.5 uM after 20 hrs by DAPI staining-based cell analyzer (reference value: 13%); format: functional; details: HCT-15
[16] = Cell cycle arrest in human T47D cells assessed as accumulation at G2/M phase at 0.5 uM after 24 hrs by DAPI staining-based cell analyzer (reference value: 13%); format: functional
[17] = Cell cycle arrest in human HCT15 cells assessed as accumulation at S phase at 1 uM after 20 hrs by DAPI staining-based cell analyzer (reference value: 34%); format: functional; details: HCT-15
[18] = Cell cycle arrest in human T47D cells assessed as accumulation at G2/M phase at 1 uM after 24 hrs by DAPI staining-based cell analyzer (reference value: 15%); format: functional
[19] = molecular target: DNA topoisomerase 2-alpha (Homo sapiens) (UniProt P11388); experiment: Poison activity at topoisomerase-2 alpha in human T47D cells assessed as DNA damage by measuring DNA tail length at 10 uM measured after 24 hrs by alkaline comet assay; format: cell-based
[20] = Cell cycle arrest in human T47D cells assessed as accumulation at G1 phase at 0.5 uM after 24 hrs by DAPI staining-based cell analyzer (reference value: 51%); format: functional
[21] = Cell cycle arrest in human T47D cells assessed as accumulation at G2/M phase after 24 hrs by DAPI staining-based cell analyzer; format: functional
[22] = Antiproliferative activity against human T47D cells measured after 72 hrs by CCK8 assay; format: functional, cell-based

Sequence of DNA topoisomerase 2-alpha (Homo sapiens) (P11388 whole entry): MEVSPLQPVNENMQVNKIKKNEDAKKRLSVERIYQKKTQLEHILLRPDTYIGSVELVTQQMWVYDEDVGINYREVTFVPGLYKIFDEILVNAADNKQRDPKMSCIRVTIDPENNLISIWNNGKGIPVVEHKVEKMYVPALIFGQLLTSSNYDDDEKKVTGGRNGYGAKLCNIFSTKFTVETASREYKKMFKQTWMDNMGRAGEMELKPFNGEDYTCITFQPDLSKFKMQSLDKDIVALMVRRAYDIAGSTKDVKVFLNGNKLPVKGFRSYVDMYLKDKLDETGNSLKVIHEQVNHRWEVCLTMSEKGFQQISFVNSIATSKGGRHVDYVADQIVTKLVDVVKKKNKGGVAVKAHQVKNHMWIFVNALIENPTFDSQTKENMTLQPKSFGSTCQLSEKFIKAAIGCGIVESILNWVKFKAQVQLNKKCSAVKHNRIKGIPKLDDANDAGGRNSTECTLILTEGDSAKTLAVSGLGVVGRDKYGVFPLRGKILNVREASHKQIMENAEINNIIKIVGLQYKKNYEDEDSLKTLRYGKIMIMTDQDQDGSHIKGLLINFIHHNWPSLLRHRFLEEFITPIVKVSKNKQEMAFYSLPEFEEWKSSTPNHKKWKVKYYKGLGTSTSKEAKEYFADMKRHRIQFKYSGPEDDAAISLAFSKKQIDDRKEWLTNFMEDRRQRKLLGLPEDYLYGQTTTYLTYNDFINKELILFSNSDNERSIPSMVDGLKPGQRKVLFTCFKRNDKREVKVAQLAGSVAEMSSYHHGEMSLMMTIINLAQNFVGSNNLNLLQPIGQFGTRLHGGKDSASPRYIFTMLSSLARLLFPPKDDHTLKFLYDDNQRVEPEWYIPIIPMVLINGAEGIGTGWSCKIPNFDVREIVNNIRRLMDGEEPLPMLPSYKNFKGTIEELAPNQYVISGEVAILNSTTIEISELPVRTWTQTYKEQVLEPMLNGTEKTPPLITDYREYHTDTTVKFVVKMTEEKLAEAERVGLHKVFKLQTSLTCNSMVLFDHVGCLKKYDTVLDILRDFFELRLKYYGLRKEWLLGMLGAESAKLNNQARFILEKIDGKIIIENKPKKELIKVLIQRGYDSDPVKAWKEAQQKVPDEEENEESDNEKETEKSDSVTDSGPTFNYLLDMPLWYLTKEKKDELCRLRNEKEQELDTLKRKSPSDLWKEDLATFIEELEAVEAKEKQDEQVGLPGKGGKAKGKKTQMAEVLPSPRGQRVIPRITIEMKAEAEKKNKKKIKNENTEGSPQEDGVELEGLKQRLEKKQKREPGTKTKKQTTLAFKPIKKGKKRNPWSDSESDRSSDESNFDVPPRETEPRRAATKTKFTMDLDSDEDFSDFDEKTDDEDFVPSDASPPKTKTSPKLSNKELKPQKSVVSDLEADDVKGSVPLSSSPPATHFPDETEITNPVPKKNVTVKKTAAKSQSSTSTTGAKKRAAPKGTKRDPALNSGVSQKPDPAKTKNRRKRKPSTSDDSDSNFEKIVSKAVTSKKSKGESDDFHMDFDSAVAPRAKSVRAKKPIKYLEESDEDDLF

Question: For `COc1cc(NS(C)(=O)=O)ccc1Nc1c2ccccc2nc2ccccc12`, which inhibition (Bos taurus) is on record?
Answer: The inhibition was “Dose-dependent effect”.

Question: Which results are given for `COc1cc([C@@H]2c3cc4c(cc3[C@@H](O[C@@H]3O[C@@H]5CO[C@@H](C)O[C@H]5[C@H](O)[C@H]3O)[C@H]3COC(=O)[C@H]23)OCO4)cc(OC)c1O` [ETOPOSIDE]?
Answer: Activity [1]: 17%; Activity [2]: 46.3 pixel; Activity [3]: 62.7 pixel; Activity [4]: 32%; Activity [5]: 37.5 pixel; Activity [6]: 24%; IC50 [7]: 2.19 µM; IC50 [8]: 1.27 µM; Activity [9]: 22%; IC50 [10]: 35.6 µM; Activity [11]: 21%; Activity [12]: 35%; Activity [13]: Dose-dependent effect; Activity [14]: 26%; Activity [15]: 29%; Activity [16]: 31%; Activity [17]: 25%; Activity [18]: 33%; Activity [19]: 66.2 pixel; Activity [20]: 39%; Activity [21]: Dose-dependent effect; IC50 [22]: 4.85 µM
